Measured values as given in PMC9319560 (Viruses, 2022).
“Also recorded” adds a separate entry of the source. Read-outs that look alike come from different tables or passages of the source. No end group written: not given here.

Key:
[1] = tested on: normal human epidermal keratinocytes (NHEK); assay: XTT cell viability assay on NHEK; type: cell-based; conditions: concentrations up to 10 µg/mL (1 to 20 µg/mL tested), 48 h incubation, compared with non-treated cells, mean of at least 3 independent experiments
[2] = tested on: normal human epidermal keratinocytes (NHEK); assay: LDH release assay on NHEK; type: cell-based; conditions: concentrations up to 10 µg/mL (1 to 20 µg/mL tested), 48 h per b34/b35 (24 h per b9), compared with non-treated cells, mean of at least 3 independent experiments
[3] = tested on: West Nile virus (WNV); assay: WNV RNA quantification by RT-qPCR in infected human primary keratinocytes; type: cell-based; conditions: NHEK, WNV MOI 0.1, 24 h; for viral load in the cell monolayers: peptide 1 or 10 µg/mL added 1 h before infection, versus untreated; for effect on WNV replication in human primary keratinocytes: peptide 1 or 10 µg/mL, viral load in monolayer and supernatant by RT-qPCR
[4] = tested on: West Nile virus (WNV); conditions: for reduction in the viral titer (factor): WNV inoculum 10^5.27 TCID50/mL pre-incubated 1 h at 37 °C (legend: 2 h), residual titer on Vero cells, versus WNV incubated alone, 5 independent experiments
[5] = tested on: human primary keratinocytes (NHEK); type: cell-based; conditions: 3 h, RT-qPCR; for pro-inflammatory effects of the peptide alone (mRNA of inflammatory markers): peptide alone 0.1, 1 and 10 µg/mL, 6 independent experiments (Figure S1)
[6] = tested on: human primary keratinocytes (NHEK) infected by WNV; assay: Inflammatory marker mRNA expression in NHEK infected with WNV, RT-qPCR; type: cell-based; conditions: WNV MOI 0.1, 24 h, 1 or 10 µg/mL peptide, versus WNV alone, similar trend, fold changes less marked, 5 independent experiments
[7] = tested on: viperin (RSAD2); assay: Viperin; type: cell-based, human; conditions: NHEK, WNV MOI 0.1, 48 h, immunofluorescence, 3 independent experiments
[8] = tested on: viral envelope; conditions: previous studies; cited from earlier work
[9] = tested on: pro-inflammatory cytokine release; conditions: cell-specific and concentration-dependent; cell supernatant; cited from earlier work
[10] = tested on: DENV; conditions: pretreatment by 30 µg/mL of peptide; cited from earlier work
[11] = tested on: human immunodeficiency virus; conditions: concentration-dependent antiviral effect against human immunodeficiency virus; cited from earlier work
[12] = tested on: human primary keratinocytes (NHEK); assay: Inflammatory marker mRNA expression in NHEK stimulated with poly(I:C), RT-qPCR; type: cell-based; conditions: NHEK stimulated with 0.1 µg/mL poly(I:C) alone, 3 h
[13] = RT-qPCR, 5 independent experiments
[14] = 1 µg/mL peptide, versus WNV alone, p < 0.05
[15] = whatever the concentration of the peptide (1 or 10 µg/mL)

Substance: LL-37
- keratinocyte viability (XTT) [1]: greater than or equal to 90%
- keratinocyte viability (LDH release) [2]: greater than or equal to 90%
- decrease of viral RNA in the cell supernatant ([3]; 10 µg/mL peptide added 1 h before infection, RT-qPCR, versus untreated cells, 5 independent experiments, p < 0.05): 5.5 fold
- viral load in the cell monolayers [3, 13]: No significant difference
- effect on WNV replication in human primary keratinocytes [3]: inhibits WNV replication
- reduction in the viral titer (factor) ([4]; 1 µg/mL peptide): 14
- reduction in the viral titer (factor) ([4]; 10 µg/mL peptide): 95
- reduction in the viral infectious titer ([4]; WNV strain incubated with peptide, concentration not given): 2 log10
- pro-inflammatory effects of the peptide alone (mRNA of inflammatory markers) [5]: no significant pro-inflammatory effects
- expression of ISGs and inflammatory markers (mRNA) during WNV infection [6]: not significant
- RSAD2 protein expression [7, 14]: significantly increased
- RSAD2 protein expression [7, 15]: enhanced
- concentration from which degradation of the viral envelope was observed [8]: ≥ 10 µg/mL
- concentration from which decreased pro-inflammatory cytokine release was seen [9]: ≥ 25 µg/mL

Substance: hBD-3 (GIINTLQKYYCRVRGGRCAVLSCLPKEEQIGKCSTRGRKCCRRKK; ends and bridges not checked; cysteine pairing not given here; UniProt P81534 23-67, looked up) [type 3 human β-defensin, skin antimicrobial peptide; purchased from PeproTech]
- keratinocyte viability (XTT) [1]: greater than or equal to 90%
- keratinocyte viability (LDH release) [2]: greater than or equal to 90%
- viral load in the cell monolayers [3, 13]: No significant difference
- effect on WNV replication in human primary keratinocytes [3]: does not seem to have any effect; also recorded: not reduced
- CXCL-8 mRNA expression, peptide alone ([5]; 10 µg/mL peptide alone, p < 0.05 (Figure S1)): notable exception
- pro-inflammatory effects of the peptide alone (mRNA of inflammatory markers) [5]: no significant pro-inflammatory effects
- RSAD2 protein expression [7, 14]: significantly increased
- RSAD2 protein expression [7, 15]: enhanced
- DENV titer [10]: did not result in a significant decrease
- concentration at which the antiviral effect is significant [11]: greater than 25 µg/mL

Substance: poly(I:C)
- inflammatory response of NHEK [12]: elicited an inflammatory response
